# From patent US5936097A, “4,9-ethano-benzo(F)isoindole derivatives as farnesyl transferase inhibitors” (Rhone-Poulenc Rorer, S.A., priority 1995, dated 1999)
# Biological target: T1, human farnesyl transferase (Homo sapiens, UniProt P49354+P49356)
# T1 construct: human farnesyl transferase purified from THP1 cell cultures; endogenous in cells; host or cells: THP1 cell cultures (enzyme purified from the cells)
# Experiment: inhibition of farnesyl transferase ((3H) farnesyl transfer from (3H) FPP to p21 H-ras)
# Format: biochemical
# Settings: not given
# Method: Farnesyl transferase activity is determined by the amount of (^3 H) farnesyl transferred from (^3 H) farnesylpyrophosphate [(^3 H) FPP] to the p21 H-ras protein. The standard reaction mixture is composed, for a final volume of […], of 50 mM Tris-HCl, 5 mM MgCl2, 5 mM dithiotreitol, 0.2% octyl b-D-glucopyranoside, 200 picomol p21 H-ras, 4.5 picomol (^3 H) FPP (activity 61000 dpm/picomol).
# Reaction is initiated by adding approximately 5 ng of human farnesyl transferase purified from THP1 cell cultures. After incubation for 20 minutes at 37° C. in a microtitration plate containing 96 1-cm^3 wells per plate (Titer Plate®, Beckman), the reaction is stopped by adding 0.4 cm^3 of 0.1% SDS in methanol at 0° C. The mixture is then treated with 0.4 cm^3 of 30% trichloroacetic® acid (TCA) in methanol. The plates are left in ice for 1 hour. The precipitated contents are then retained on Filtermat®, Pharmacia), glass® fibre membranes with the filtration unit (Combi Cell Harvester®, Skatron), and rinsed with 6% trichloroacetic acid in distilled water. The membranes are dried in a microwave oven, then impregnated with scintillation medium by melting of Meltilex® (Pharmacia) under hot air, and lastly counted in cpm in a b-Plate counter® (LKB). Each test is repeated 3 times.
# The unit of activity is defined as 1 picomole of (^3 H) FPP transferred to p21 H-ras in 20 minutes.
# The percentage inhibition values are obtained by comparison of the tests with and without inhibitor after deduction of blanks, the IC50 values being measured on the basis of the inhibitions obtained with 9 different concentrations using Enzfitter® or Grafit® software.
row,Structure (SMILES),IC50 [nM]
1,"COc1ccccc1[C@@H](C)C(=O)N1CC2C3(c4ccccc4)CCC(c4ccccc43)C2(C(=O)O)C1 (single isomer, unassigned) [Example 33]",2030
2,"COc1ccccc1CC(=O)N1C[C@@H]2[C@]3(c4ccccc4)CC[C@@H](c4ccc(I)cc43)[C@]2(C(=O)O)C1 (relative stereo) [Example 43, (3aRS,4SR,9SR,9aRS)-4,9-ethano-7-iodo-2-(2-methoxyphenyl)acetyl-9-phenyl-2,3,3a,4,9,9a-hexahydro-1H-benzo[f]isoindole-3a-carboxylic acid]",700
3,"O=C(Cc1ccccc1Cl)N1C[C@@H]2[C@]3(c4ccccc4)CC[C@@H](c4ccccc43)[C@]2(C(=O)O)C1 (relative stereo) [Example 61, (3aRS,4SR,9SR,9aRS)-4,9-Ethano-2-(2-chlorophenyl)acetyl-9-phenyl-2,3,3a,4,9,9a-hexahydro-1H-benzo[f]isoindole-3a-carboxylic acid]",4700
4,"Cc1ccccc1CC(=O)N1C[C@@H]2[C@]3(c4ccccc4)CC[C@@H](c4ccccc43)[C@]2(C(=O)O)C1 (relative stereo) [Example 62, (3aRS,4SR,9SR,9aRS)-4,9-Ethano-2-(2-methylphenyl)acetyl-9-phenyl-2,3,3a,4,9,9a-hexahydro-1H-benzo[f]isoindole-3a-carboxylic acid]",1150

# Same assay, conditions: human farnesyl transferase purified from THP1 cell cultures; p21 H-ras substrate; 20 minutes at 37° C.; 9 concentrations; read-out: in vitro inhibitory activity IC50
row,Structure (SMILES),IC50 [nM]
1,"CCOC(=O)[C@]12CN(C(=O)Cc3ccccc3OC)C[C@H]1[C@@]1(c3ccccc3)CC[C@@H]2c2ccccc21 (relative stereo) [Example 10, ethyl ester of (3aRS, 4SR, 9SR, 9aRS)-4,9-ethano-2-(2-methoxyphenyl)acetyl-9-phenyl-2,3,3a,4,9,9a-hexahydro-1H-benzo[f]isoindol-3a-carboxylic acid]",4350
2,"C=C(C(=O)N1C[C@H]2[C@@]3(c4ccccc4)CC[C@H](c4ccccc43)[C@@]2(C(=O)NC(C)(C)c2ccccc2)C1)c1ccccc1OC [Example 86, (3aS,4R,9R,9aS)-N-(2,2-dimethylbenzyl)-4,9-ethano-2[-(2-methoxyphenyl)prop-2-en-1-oyl]-9-phenyl-2,3,3a,4,9,9a-hexahydro-1H-benzo[f]isoindole-3a-carboxamide]",4850
3,"COc1ccc2c(c1)[C@]1(c3ccccc3)CC[C@H]2[C@@]2(C(=O)O)CN(C(=O)Cc3ccccc3OC)C[C@@H]12 (relative stereo) [Example 70, (3aRS,4SR,9SR,9aRS)-4,9-ethano-7-methoxy-2-(2-methoxy-phenyl)acetyl-9-phenyl-2,3,3a,4,9,9a-hexahydro-1H-benzo[f]isoindole-3a-carboxylic acid]",2850
4,"COc1ccccc1CC(=O)N1C[C@H]2[C@@]3(c4ccccc4)CC[C@H](c4ccccc43)[C@@]2(NC(=O)CN)C1 (relative stereo) [Example 12, (3aRS, 4SR, 9SR, 9aRS)-3a-glycylamino-4,9-ethano-2-(2-methoxyphenyl)acetyl-9-phenyl-2,3,3a,4,9,9a-hexahydro-1H-benzo[f]isoindole]",7500
5,"COc1ccccc1CC(=O)N1C[C@@H]2[C@]3(c4ccccc4)CC[C@@H](c4ccccc43)[C@]2(C(=O)NCCC(=O)O)C1 (relative stereo) [Example 50, N-[(3aRS,4SR,9SR,9aRS)-4,9-ethano-2-(2-methoxyphenyl)acetyl-9-phenyl-2,3,3a,4,9,9a-hexahydro-1H-benzo[f]isoindol-3a-yl]carbonyl-3-aminopropanoic acid]",1300
6,"COc1ccccc1CC(=O)N1C[C@H]2[C@@]3(c4ccccc4)CC[C@H](c4ccccc43)[C@@]2(CCC(=O)O)C1 (relative stereo) [Example 25, 3-[(3aRS, 4SR, 9SR, 9aRS)-4,9-ethano-2-(2-methoxyphenyl)acetyl-9-phenyl-1,2,3,3a,9,9a-hexahydro-1H-benzo[f]isoindol-3a-yl]propionic acid]",2600

# Next, values leading:
row,IC50 [nM],Structure (SMILES)
1,10000,"COc1ccccc1CC(=O)N1C[C@H]2[C@@]3(c4ccccc4)CC[C@H](c4ccccc43)[C@@]2(C[n+]2ccccc2)C1 (relative stereo) [Example 18, N-[(3aRS, 4SR, 9SR, 9aRS)-4,9-ethano-2-(2-methoxyphenyl)acetyl-9-phenyl-2,3,3a,4,9,9a-hexahydro-1H-benzo[f]isoindolyl-3a-methyl]pyridinium trifluoromethanesulphonate]"
2,7000,"CNCCNC(=O)[C@]12CN(C(=O)Cc3ccccc3OC)C[C@H]1[C@@]1(c3ccccc3)CC[C@@H]2c2ccccc21 (relative stereo) [Example 5, (3aRS, 4SR, 9SR, 9aRS)-N-(2-methylaminoethyl)-4,9-ethano-2-(2-methoxyphenyl)acetyl-9-phenyl-2,3,3a,4,9,9a-hexahydro-1H-benzo[f]isoindole-3a-carboxamide]"
3,6950,"COc1ccccc1CC(=O)N1C[C@H]2[C@@]3(c4ccccc4)CC[C@H](c4ccccc43)[C@@]2(NC=O)C1 (relative stereo) [Example 11, (3aRS, 4SR, 9SR, 9aRS)-3a-formylamino-4,9-ethano-2-(2-methoxyphenyl)acetyl-9-phenyl-2,3,3a,4,9,9a-hexahydro-1H-benzo[f]isoindole]"
4,4800,"COc1ccccc1CC(=O)N1C[C@H]2[C@@]3(c4ccccc4)CC[C@H](c4ccccc43)[C@@]2(CC(=O)NCC(=O)O)C1 (relative stereo) [Example 20, N-[(3aRS, 4SR, 9SR, 9aRS)-4,9-ethano-2-(2-methoxyphenyl)acetyl-9-phenyl-2,3,3a,4,9,9a-hexahydro-1H-benzo[f]isoindol-3a-yl]acetylglycine]"
5,2950,"CC(C)Oc1ccccc1CC(=O)N1C[C@@H]2[C@]3(c4ccccc4)CC[C@@H](c4ccccc43)[C@]2(C(=O)O)C1 (relative stereo) [Example 40, (3aRS,4SR,9SR,9aRS)-4,9-ethano-2-(2-isopropyl-oxyphenyl)acetyl-9-phenyl-2,3,3a,4,9,9a-hexahydro-1H-benzo[f]isoindole-3a-carboxylic acid]"
6,2250,"COc1ccccc1CC(=O)N1C[C@H]2[C@@]3(c4ccccc4)CC[C@H](c4ccccc43)[C@@]2(C(=O)N(C)OC)C1 (relative stereo) [Example 68, (3aRS,4SR,9SR,9aRS)-N-methoxy-N-methyl-4,9-ethano-2-(2-methoxy-phenyl)acetyl-9-phenyl-2,3,3a,4,9,9a-hexahydro-1H-benzo[f]isoindole-3a-carboxamide]"
7,950,"COc1ccccc1CC(=O)N1C[C@H]2[C@@]3(c4ccccc4)CC[C@H](c4ccccc43)[C@@]2(C(=O)NCC(=O)O)C1 (relative stereo) [Example 67, N-[(3aRS,4SR,9SR,9aRS)-4,9-ethano-2-(2-methoxy-phenyl)acetyl-9-phenyl-2,3,3a,4,9,9a-hexahydro-1H-benzo[f]isoindol-3a-yl]carbonylglycine]"
8,750,"O=C(Cc1ccccc1OCc1ccccc1)N1C[C@@H]2[C@]3(c4ccccc4)CC[C@@H](c4ccccc43)[C@]2(C(=O)O)C1 (relative stereo) [Example 64, (3aRS,4SR,9SR,9aRS)-4,9-Ethano-2-(2-benzyloxyphenyl)acetyl-9-phenyl-2,3,3a,4,9,9a-hexahydro-1H-benzo[f]isoindole-3a-carboxylic acid]"
9,590,"COc1ccccc1CC(=O)N1CC2C3(c4ccccc4)CCC(c4ccccc43)C2(C(=O)N[C@@H](CS)C(=O)O)C1 (stereo partly drawn) [Example 53, N-[(3aRS,4SR,9SR,9aRS)-4,9-ethano-2-(2-methoxyphenyl)acetyl-9-phenyl-2,3,3a,4,9,9a-hexahydro-1H-benzo[f]isoindol-3a-yl]carbonyl-L-cysteine]"
10,430,"C=C(C(=O)N1C[C@H]2[C@@]3(c4ccccc4)CC[C@H](c4ccccc43)[C@@]2(C(=O)NCc2ccco2)C1)c1ccccc1OC [Example 94, (3aS,4R,9R,9aS)-N-[(2-furyl)-methyl]-4,9-ethano-2-[(2-methoxyphenyl)prop-2-en-1-oyl]-9-phenyl-2,3,3a,4,9,9a-hexahydro-1H-benzo[f]isoindole-3a-carboxamide]"
11,270,"C=C(C(=O)N1C[C@H]2[C@@]3(c4ccccc4)CC[C@H](c4ccccc43)[C@@]2(C(=O)NCc2cccs2)C1)c1ccccc1OC [Example 95, (3aS,4R,9R,9aS)-N-[(2-thienyl)-methyl]-4,9-ethano-2-[(2-methoxyphenyl)prop-2-en-1-oyl]-9-phenyl-2,3,3a,4,9,9a-hexahydro-1H-benzo[f]isoindole-3a-carboxamide]"
12,260,"C=C(C(=O)N1C[C@H]2[C@@]3(c4ccccc4)CC[C@H](c4ccccc43)[C@@]2(C(=O)N[C@H](CO)c2ccccc2)C1)c1ccccc1OC [Example 85, (3aS,4R,9R,9aS)-N-[1-(S)-1-phenyl-2-hydroxyethyl]-4,9-ethano-2[-(2-methoxyphenyl)prop-2-en-1-oyl]-9-phenyl-2,3,3a,4,9,9a-hexahydro-1H-benzo[f]isoindole-3a-carboxamide]"
